Reference: patent US20240228480A1, “PROCESSES FOR PREPARING PYRROLOPYRIDINE-ANILINE COMPOUNDS” (NFLECTION THERAPEUTICS, INC., priority 2021, published 2024)
Entries after “also recorded” stand apart in the source; their conditions may differ. Values belong to the compound of their own block, whether it stands above or below them.

Tests used:
[1] = Stability of Compound (II) suspended in various solvents (slurry experiment, HPLC area %); type: physicochemical
Source text: Therefore, the first course of action was to find a suitable solvent in which to suspend compound (II) for the addition to the first mixture of step 6a).

[2] = clinical trials; cited from earlier work

Area % t = 10 min ([1]; solvent 2-Me-THF): 88.0 Area %
Area % t = 2 h ([1]; solvent 2-Me-THF): 77.8 Area %
Area % t = 17 h ([1]; solvent 2-Me-THF): 75.3 Area %
Area % t = 10 min ([1]; solvent DCM): 91.4 Area %
Area % t = 2 h ([1]; solvent DCM): 90.5 Area %
Area % t = 17 h ([1]; solvent DCM): 85.3 Area %
Area % t = 10 min ([1]; solvent Heptane): *68.6 Area %
Area % t = 2 h ([1]; solvent Heptane): 88.4 Area %
Area % t = 17 h ([1]; solvent Heptane): 91.8 Area %
Area % t = 10 min ([1]; solvent IPAc): *81.6 Area %
Area % t = 2 h ([1]; solvent IPAc): 93.3 Area %
Area % t = 17 h ([1]; solvent IPAc): 90.4 Area %
Area % t = 10 min ([1]; solvent MTBE): 92.9 Area %
Area % t = 2 h ([1]; solvent MTBE): *81.6 Area %
Area % t = 17 h ([1]; solvent MTBE): 87.2 Area %
Area % t = 10 min ([1]; solvent MeCN): 87.4 Area %
Area % t = 2 h ([1]; solvent MeCN): 79.2 Area %
Area % t = 17 h ([1]; solvent MeCN): 65.5 Area %
Area % t = 10 min ([1]; solvent THF): 90.0 Area %
Area % t = 2 h ([1]; solvent THF): 83.7 Area %
Area % t = 17 h ([1]; solvent THF): 63.7 Area %
Compound: Cn1c(Nc2ccc(I)cc2F)c(C(=O)Cl)c2cccnc21 [Compound (II)]
Decomposition when suspended in THF ([1]; suspended in THF for a period of time (e.g., >10 h)): Decomposition of compound (II) was found to occur

Compound: O=C(NOC[C@H](O)CO)c1ccc(F)c(F)c1Nc1ccc(I)cc1F [PD0325901]
Side effects exhibited [2]: neurological side effects associated with ataxia, confusion, and syncope; also recorded: one or more neurological side effects associated with ataxia, confusion, and syncope
